Test results: ChEMBL document CHEMBL5233241, “A medicinal chemistry perspective of drug repositioning: Recent advances and challenges in drug discovery” (Eur J Med Chem, 2020)
Where a name gives a salt, the structure may show the parent alone.

What was measured:
Plasmodium = assay: Antimalarial activity against Plasmodium; assay type: functional, organism-based
[1] = Cytotoxicity against human Huh-7 cells; assay type: toxicity, cell-based
[2] = system: Middle East respiratory syndrome-related coronavirus; assay: Antiviral activity against MERS-CoV/KOR/KNIH/002_05_2015 infected in human Huh-7 cells assessed as reduction in virus-induced cytopathic effect incubated for 3 days by CellTiter 96 aqueous one solution cell proliferation assay; assay type: functional, organism-based; conditions: KOR/KNIH/002_05_2015, Huh-7, 72 h
Plasmodium falciparum = assay: Antimalarial activity against Plasmodium falciparum W2; assay type: functional, organism-based
Tyrosinase = target: T1, Tyrosinase (Agaricus bisporus, UniProt O42713); assay: Inhibition of mushroom tyrosinase
T1 sequence (O42713 whole entry): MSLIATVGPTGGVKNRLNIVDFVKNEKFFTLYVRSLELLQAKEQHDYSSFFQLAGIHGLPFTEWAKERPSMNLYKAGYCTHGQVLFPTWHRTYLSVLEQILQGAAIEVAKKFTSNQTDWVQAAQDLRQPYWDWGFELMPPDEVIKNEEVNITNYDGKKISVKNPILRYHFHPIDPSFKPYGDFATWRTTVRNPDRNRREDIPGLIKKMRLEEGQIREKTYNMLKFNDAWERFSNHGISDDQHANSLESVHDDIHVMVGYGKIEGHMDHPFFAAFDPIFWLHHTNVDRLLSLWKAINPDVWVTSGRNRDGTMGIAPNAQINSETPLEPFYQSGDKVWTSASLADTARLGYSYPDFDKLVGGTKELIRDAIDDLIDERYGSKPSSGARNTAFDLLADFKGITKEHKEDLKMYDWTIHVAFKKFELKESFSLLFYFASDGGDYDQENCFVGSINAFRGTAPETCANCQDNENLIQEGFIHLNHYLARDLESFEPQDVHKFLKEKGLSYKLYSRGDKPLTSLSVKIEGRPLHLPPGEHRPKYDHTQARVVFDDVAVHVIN

[3] = Inhibition of melanin production in mouse B16 cells assessed as reduction in melanin content at up to 20 uM relative to control; assay type: functional
Mus musculus [4] = assay: Anti-alzheimer activity against old APP/PS1 mouse model assessed as reduction in amyloid beta (1 to 42 residues) level at 100 mg/kg, po administered daily and measured for 14 days; assay type: functional; parameters: scale not given: the % may be the effect or the level left; conditions: time 14 day
Mus musculus [5] = assay: Anti-alzheimer activity against young APP/PS1 mouse model assessed as reduction in amyloid beta (1 to 42 residues) level at 100 mg/kg, po administered daily and measured for 14 days; assay type: functional; parameters: scale not given: the % may be the effect or the level left; conditions: time 14 day
Mus musculus [6] = assay: Anti-alzheimer activity against young APP/PS1 mouse model assessed as reduction in amyloid beta (1 to 40 residues) level at 100 mg/kg, po administered daily and measured for 14 days; assay type: functional; parameters: scale not given: the % may be the effect or the level left; conditions: time 14 day
Mus musculus [7] = assay: Anti-alzheimer activity against old APP/PS1 mouse model assessed as reduction in amyloid beta (1 to 40 residues) level at 100 mg/kg, po administered daily and measured for 14 days; assay type: functional; parameters: scale not given: the % may be the effect or the level left; conditions: time 14 day
Mus musculus [8] = assay: Anti-alzheimer activity against APP/PS1 mouse model assessed as reduction in insoluble amyloid beta level at 100 mg/kg, po administered daily and measured for 90 days; assay type: functional; parameters: scale not given: the % may be the effect or the level left; conditions: time 90 day
[9] = system: Middle East respiratory syndrome-related coronavirus; assay: Antiviral activity against MERS-CoV isolate EMC/2012 infected in human Huh-7 cells assessed as reduction in virus-induced cytopathic effect incubated for 2 days by MTS assay; assay type: functional, organism-based; conditions: EMC/2012, Huh-7, 48 h
SARS-CoV [10] = assay: Antiviral activity against SARS-CoV isolate Frankfurt-1 infected in Vero E6 cells assessed as reduction in virus-induced cytopathic effect incubated for 3 days by MTS assay; assay type: functional, organism-based; conditions: Severe acute respiratory syndrome-related coronavirus, Frankfurt-1, Vero C1008, 72 h
Human coronavirus 229E [11] = assay: Antiviral activity against hCoV-229E expressing GFP infected in human Huh-7 cells assessed as reduction in virus-induced cytopathic effect incubated for 24 hrs by MTS assay; assay type: functional, organism-based; conditions: Huh-7, 24 h
[12] = Inhibition of Wnt signalling in HEK293T cells; assay type: cell-based; conditions: Homo sapiens, HEK-293T
[13] = Inhibition of Wnt signalling in human BT-20 cells; assay type: cell-based
Mus musculus [14] = assay: Anti-alzheimer activity against APP/PSEN1 transgenic mouse model assessed as fold reduction in amyloid beta plaques at 10 mg/kg administered intranasally every other day for 2 months; assay type: functional; conditions: route nas, 1460 h
[15] = Cytotoxicity against human OVSAHO cells incubated for 72 hrs by SRB assay; assay type: functional, cell-based
OVCAR-3 = assay: Cytotoxicity against human OVCAR-3 cells incubated for 72 hrs by SRB assay; assay type: functional, cell-based; conditions: OVCAR-3, 72 h
OVCAR-4 = assay: Cytotoxicity against human OVCAR-4 cells incubated for 72 hrs by SRB assay; assay type: functional, cell-based; conditions: OVCAR-4, 72 h
[16] = Cytotoxicity against human COV362 cells incubated for 120 hrs by SRB assay; assay type: functional, cell-based; conditions: COV362, 120 h
[17] = Cytotoxicity against human COV318 cells incubated for 120 hrs by SRB assay; assay type: functional, cell-based; conditions: COV318, 120 h
Dengue virus = assay: Antiviral activity against DENV assessed as inhibition of viral replication relative to control; assay type: functional
Human coronavirus 229E [18] = assay: Antiviral activity against hCoV-229E; assay type: functional, organism-based
SARS-CoV [19] = assay: Antiviral activity against SARS-CoV; assay type: functional, organism-based; conditions: Severe acute respiratory syndrome-related coronavirus
B16-F10 = assay: Inhibition of melanin production in mouse B16-F10 cells assessed as reduction in melanin content at 50 uM relative to control; assay type: functional

## CCCc1nc2c(C)cc(-c3nc4ccccc4n3C)cc2n1Cc1ccc(-c2ccccc2C(=O)O)cc1
Plasmodium
  IC50: 0.025 µM

## COc1ccc(C2=NC(c3ccc(Cl)cc3)C(c3ccc(Cl)cc3)N2C(=O)N2CCNC(=O)C2)c(OC(C)C)c1 (stereo unspecified)
[1]
  CC50: 26.8 µM
[2]
  EC50: 36.9 µM

## CCN(CC)Cc1cc(Nc2ccnc3cc(Cl)ccc23)ccc1O
[2]
  EC50: 2.1 µM

## COc1ccc(-c2nc(-c3cc(C(F)(F)F)cc(C(F)(F)F)c3)n(Cc3ccc(C(N)=O)cc3)c2-c2ccc(OC)cc2)cc1
Plasmodium falciparum
  EC50: 4.5 µM

## COc1ccc2[nH]c([S@@+]([O-])Cc3ncc(C)c(OC)c3C)nc2c1
Plasmodium
  IC50: 0.29 µM

## N=C(N)c1ccc(OCCCCCOc2ccc(C(=N)N)cc2)cc1
Plasmodium
  IC50: < 0.5 µM

## CC(=O)c1ccc2c(c1)N(CCCN1CCN(CCO)CC1)c1ccccc1S2 [ACETOPHENAZINE]
[1]
  CC50: 23.6 µM
[2]
  EC50: 11.2 µM

## N=C(N)N/N=C1C=C/C(=N\NC(N)=S)C=C\1 [AMBAZONE]
Tyrosinase
  IC50: 15 µM
[3]
  inhibition (INH): 20%

## CC(=O)Nc1ccc(/C=N/NC(N)=S)cc1 [AMITHIOZONE]
Tyrosinase
  IC50: 14 µM

## Cn1cnc([N+](=O)[O-])c1Sc1ncnc2nc[nH]c12 [AZATHIOPRINE]
Tyrosinase
  Ki: > 1000 µM

## C=C(c1ccc(C(=O)O)cc1)c1cc2c(cc1C)C(C)(C)CCC2(C)C [BEXAROTENE]
Mus musculus [4]
  Activity: 25%
Mus musculus [5]
  Activity: 25%
Mus musculus [6]
  Activity: 25%
Mus musculus [7]
  Activity: 25%
Mus musculus [8]
  Activity: 30%

## CCOC(=O)n1ccn(C)c1=S [CARBIMAZOLE]
Tyrosinase
  IC50: 186 µM

## CCN(CC)CCCC(C)Nc1ccnc2cc(Cl)ccc12 (stereo unspecified) [CHLOROQUINE]
[9]
  EC50: 3 µM
SARS-CoV [10]
  EC50: 4.1 µM

## CN(C)CCCN1c2ccccc2Sc2ccc(Cl)cc21 [CHLORPROMAZINE]
[9]
  EC50: 4.9 µM
SARS-CoV [10]
  EC50: 8.8 µM
Human coronavirus 229E [11]
  EC50: 2.5 µM

## CN1CCC[C@@H]1CCO[C@](C)(c1ccccc1)c1ccc(Cl)cc1 [CLEMASTINE FUMARATE]
Plasmodium
  IC50: 2.2 µM

## CC(C)/N=c1\cc2n(-c3ccc(Cl)cc3)c3ccccc3nc-2cc1Nc1ccc(Cl)cc1 [CLOFAZIMINE]
[12]
  IC50: 6 µM
[13]
  IC50: 7 µM

## C/C=C/C[C@@H](C)[C@@H](O)[C@H]1C(=O)N[C@@H](CC)C(=O)N(C)CC(=O)N(C)[C@@H](CC(C)C)C(=O)N[C@@H](C(C)C)C(=O)N(C)[C@@H](CC(C)C)C(=O)N[C@@H](C)C(=O)N[C@H](C)C(=O)N(C)[C@@H](CC(C)C)C(=O)N(C)[C@@H](CC(C)C)C(=O)N(C)[C@@H](C(C)C)C(=O)N1C [CYCLOSPORINE]
Plasmodium
  IC50: 1.7 µM

## CN(C)CC/C=C1\c2ccccc2CSc2ccccc21 [DOTHIEPIN HYDROCHLORIDE]
[1]
  CC50: 28.9 µM
[2]
  EC50: 3.4 µM

## CCN(CC)CCOc1ccc(/C(=C(/Cl)c2ccccc2)c2ccccc2)cc1 [ENCLOMIPHENE CITRATE]
Plasmodium
  IC50: 0.22 µM

## OCCOCCN1CCN(C(c2ccccc2)c2ccc(Cl)cc2)CC1 (stereo unspecified) [HYDROXYZINE]
[1]
  CC50: > 50 µM
[2]
  EC50: 14.4 µM

## COc1ccc2c(c1)N(C[C@H](C)CN(C)C)c1ccccc1S2 [LEVOMEPROMAZINE]
[1]
  CC50: 24.5 µM
[2]
  EC50: 2.5 µM

## CN(C)C(=O)C(CCN1CCC(O)(c2ccc(Cl)cc2)CC1)(c1ccccc1)c1ccccc1 [LOPERAMIDE]
[9]
  EC50: 4.8 µM
SARS-CoV [10]
  EC50: 5.9 µM
Human coronavirus 229E [11]
  EC50: 4 µM

## Cc1cccc(C)c1OCC(=O)N[C@@H](Cc1ccccc1)[C@@H](O)C[C@H](Cc1ccccc1)NC(=O)[C@H](C(C)C)N1CCCNC1=O [LOPINAVIR]
[9]
  EC50: 8 µM

## CCCCc1nc(Cl)c(CO)n1Cc1ccc(-c2ccccc2-c2nnn[nH]2)cc1 [LOSARTAN]
Mus musculus [14]
  fold change (FC): 3.7

## Sc1ncnc2nc[nH]c12 [MERCAPTOPURINE ANHYDROUS]
Tyrosinase
  Ki: 16 µM

## Cn1cc[nH]c1=S [METHIMAZOLE]
Tyrosinase
  IC50: 114 µM

## Cc1cc(=O)[nH]c(=S)[nH]1 [METHYLTHIOURACIL]
Tyrosinase
  IC50: 142 µM

## COc1ccc2[nH]c([S+]([O-])Cc3ncc(C)c(OC)c3C)nc2c1 (stereo unspecified) [OMEPRAZOLE]
Plasmodium
  IC50: < 1 µM

## C[C@]12C=CC(=O)C=C1CC[C@@H]1[C@@H]2[C@@H](O)C[C@@]2(C)[C@H]1CC[C@]2(O)C(=O)CO [PREDNISOLONE]
[15]
  IC50: 1.1 µM
OVCAR-3
  IC50: 1.1 µM
OVCAR-4
  IC50: 1.1 µM
[16]
  IC50: 1.1 µM
[17]
  IC50: 1.1 µM

## CCCc1cc(=O)[nH]c(=S)[nH]1 [PROPYLTHIOURACIL]
Tyrosinase
  IC50: 170 µM

## C=C[C@H]1CN2CC[C@H]1C[C@H]2[C@H](O)c1ccnc2ccc(OC)cc12 [QUININE]
Dengue virus
  inhibition (INH): 80%

## O=C(c1ccc(OCCN2CCCCC2)cc1)c1c(-c2ccc(O)cc2)sc2cc(O)ccc12 [RALOXIFENE HYDROCHLORIDE]
Plasmodium
  IC50: < 0.5 µM

## CN1CCN(CCOc2cc(OC3CCOCC3)c3c(Nc4c(Cl)ccc5c4OCO5)ncnc3c2)CC1 [SARACATINIB]
Human coronavirus 229E [18]
  EC50: 5.1 µM
SARS-CoV [19]
  EC50: 2.4 µM
[1]
  CC50: > 50 µM

## CN1CCN(c2nc(C3=C(c4c[nH]c5ccccc45)C(=O)NC3=O)c3ccccc3n2)CC1 [SOTRASTAURIN]
[1]
  CC50: > 50 µM
[2]
  EC50: 9.7 µM

## Nc1nc2nc[nH]c2c(=S)[nH]1 [THIOGUANINE]
B16-F10
  inhibition at 50 µM: 57%
Tyrosinase
  Ki: 52 µM

## OC[C@H]1O[C@@H](n2cnc3c(S)ncnc32)[C@H](O)[C@@H]1O [THIOINOSINE]
Tyrosinase
  Ki: 8 µM

## O=c1cc[nH]c(=S)[nH]1 [THIOURACIL]
Tyrosinase
  IC50: 128 µM
